Assay results published in patent US11642332B2, “(2R,4R)-5-(5′-chloro-2′-fluorobiphenyl-4-yl)-2-hydroxy-4-[(5-methyloxazole-2-carbonyl)amino]pentanoic acid” (THERAVANCE BIOPHARMA R&D IP, LLC, priority 2015, dated 2023).

Tests used:
[1] = IV/PO pharmacokinetic study in dogs; assay type: in vivo, male beagle dogs; parameters: AUC(0-t): concentration or dose not given beside the values; conditions: dog; for AUC(0-t): read-out: AUClast Mean
Method: (§1) Each rat or dog PK study began with formulation of the test compound. Appropriate masses of each test compound were added into a volume of vehicle (e.g. 5% sodium bicarbonate, 5% dextrose in H2O) such that the final concentration of each compound was appropriate to be dosed at 2 mL/kg. Although a homogenous suspension were acceptable for oral dosing, intravenous dosing solutions were sterile-filtered (0.2 μm) prior to dosing to ensure no particulates were administered.
In the dog study, male beagle dogs (3 per route) housed at Agilux Laboratories (Worcester, Mass.) and weighing between 7-12 kg received either a single oral gavage or a single intravenous (via indwelling catheter) dose of the dosing solution. The final dose was typically 0.1-2 mg/kg. Serial blood samples were harvested via direct venipuncture at 3 minutes, 15 minutes, 30 minutes, 1 hour, 2 hours, 4 hours, 6 hours, 8 hours, 12 hours, and 24 hours post-dose. All samples were collected manually into microtainer tubes containing EDTA as the anticoagulant and were processed to plasma by refrigerated centrifugation.
(§2) Plasma samples were extracted with 3 volumes of MeCN containing a suitable internal standard. Extracts were reconstituted into 3 volumes of water containing 1% formic acid, and analyzed via HPLC-coupled MS/MS. Plasma concentration-time data were analyzed using the Phoenix software (Pharsight Corp., St. Louis, Mo.) to calculate pharmacokinetic parameters.
(§3) Plasma clearance was determined from the intravenous arm of the study, and represents the rate at which plasma is cleared of drug. It is equal to the dose divided by the area under the plasma concentration-time curve. In addition to plasma clearance, it is also essential for an orally administered drug to reach efficacious systemic levels following oral delivery. Oral bioavailability is a measurement of plasma exposures following oral administration relative to exposures following intravenous administration.

[2] = IV/PO pharmacokinetic study in rats; assay type: in vivo, male Sprague-Dawley rats; parameters: AUC(0-t): concentration or dose not given beside the values; conditions: rat; for AUC(0-t): read-out: AUClast Mean
Method: as §1
In the rat study, pre-cannulated male Sprague-Dawley rats (3 per route) between 8 and 10 weeks of age were obtained from Harlan Laboratories (Indianapolis, Ind.). Rats received either a single oral gavage or a single intravenous (via lateral tail vein) dose of the dosing solution. The final dose was typically 0.5-3 mg/kg. Serial blood samples were harvested via the cannula implanted in the jugular vein at 3 minutes, 15 minutes, 30 minutes, 1 hour, 2 hours, 4 hours, 6 hours, and 24 hours post-dose. Sampling was performed either manually or using automated blood samplers. Samples were collected into microtainer tubes containing EDTA as the anticoagulant and were processed to plasma by refrigerated centrifugation.
as §2, §3

[3] = Renal excretion of Compound 1 in monkey; assay type: in vivo, male cynomolgus monkeys; conditions: IV 1 mg/kg
Method: (§4) An important factor for insuring appropriate long term drug dosing and correct steady-state drug concentrations in patients is drug clearance. In general, decreased drug clearance results in higher drug concentrations and greater drug effects. In order to understand renal clearance of Compound 1, the percent of administered dose recovered in urine following a single IV dose was assessed in three animal species. Three separate studies in male Sprague Dawley rats, male beagle dogs and male cynomolgus monkeys, respectively, were conducted and the procedure and experimental results are described below.
Male cynomolgus monkeys (N=3), having body weights of 4.42-5.81 kg, received an IV dose of compound 1 at 1 mg/kg. Compound 1 was dissolved in PEG-200:ethanol:water (40:10:50) and filtered through a […] polyvinyl difluoride (PVDF) syringe filter prior to administration. The monkeys had access to food ad libitum before and after administration of Compound 1. Urine samples were collected on dry ice during the collection interval periods, the sample volumes were recorded, and the urine acidified with acetic acid to a final concentration of approximately 2% acetic acid. Aliquots were obtained and frozen (−70° C.) prior to bioanalysis.
Monkey urine concentrations of Compound 1 were determined by LC/MS/MS. Urine samples were thawed and diluted in plasma K2EDTA (1:4). […]

[4] = Renal excretion of Compound 1 in dog; assay type: in vivo, male beagle dogs; conditions: for Urinary Excretion (approximate % of administered dose excreted in urine) Mean: 0-24 hrs
Method: as §4
Male beagle dogs (N=6, two groups of 3), having body weights of 9.04-10.2 kg and 10.8-11.5 kg, received an IV dose of Compound 1 at 0.1 mg/kg (Group I) and 1.255 mg/kg (Group II) as part of a dosing cassette. Compound 1 was dissolved in PEG-200:ethanol:water (40:10:50) and filtered through a […] polyvinyl difluoride (PVDF) syringe filter prior to administration. The dogs had access to food ad libitum before and after administration of Compound 1. Urine samples were collected on cold packs into pre-weighed containers that were prefilled with 0.5 mL glacial acetic acid. The samples were weighed again and additional glacial acetic acid was added if needed to a final concentration of 2%. The samples were frozen and stored (−80° C.) prior to bioanalysis.
Dog urine concentrations of Compound 1 were determined by LC/MS/MS. Urine study samples (diluted in plasma K2EDTA(1:9)) were vortexed and 25 μL was placed in a 96-well plate. The samples were extracted with 100 μL in acetonitrile with internal standard Glyburide. The extract was centrifuged for 5 minutes at 3100 RPM and 75 μL of supernatant was transferred and mixed with 150 μL water. Samples (12 μL) were injected on a Waters Acquity UPLC BEH C18 (50×2.1 mm, 1.7 μm) column with a flow rate of 0.9 mL/min. Mobile phase A consisted of 95:5:0.1 (v:v:v) water:acetonitrile:formic acid and mobile phase B consisted of 50:50:0.1 (v:v:v) methanol:acetonitrile:formic acid. The gradient elution started with 35% to 90% B from 0.2 to 1.6 min, held at 95% from 1.7 to 2.2 min., followed by a step of 95% to 35% B from 2.20 to 2.30 min. Compound 1 assay range was 0.000100 to 1.00 μg/mL.
The mean amount of urine excreted over a collection period of 24 hrs and the approximate % of administered dose excreted in urine is reported in the table below.

With `Cc1cnc(C(=O)N[C@H](Cc2ccc(-c3cc(Cl)ccc3F)cc2)C[C@@H](O)C(=O)O)o1` [Compound 1, (2R,4R)-5-(5′-Chloro-2′-fluorobiphenyl-4-yl)-2-hydroxy-4-[(5-methyloxazole-2-carbonyl)amino]pentanoic Acid] the “CLlast Mean” value ([1]; IV) was 4.83 mL/min/kg, the AUC(0-t) ([1]; male, beagle, plasma, IV) was 510 ng·h/mL and the bioavailability ([1]; male, beagle, plasma, PO vs IV AUClast) was > 100%. It also gave an AUC(0-t) ([1]; male, beagle, plasma, PO) of 530 ng·h/mL, an AUC(0-t) ([2]; male, Sprague-Dawley, plasma, IV) of 610 ng·h/mL and a bioavailability ([2]; male, Sprague-Dawley, plasma, PO vs IV AUClast) of 67%. For the same compound, the AUC(0-t) ([2]; male, Sprague-Dawley, plasma, PO) was 400 ng·h/mL, the “CLlast Mean” value ([2]; IV, dose divided by AUClast) was 13.8 mL/min/kg and the “Amount of Compound 1 Excreted in Urine over Collection Period (0-24 hrs) Mean” value (from here on “Amount … over Collection Period (0-24 hrs) Mean”) [3] was 157 µg. The “Amount … over Collection Period (0-24 hrs) Mean” value ([4]; IV 0.1 mg/kg) was 15.8 µg, the “Urinary Excretion (approximate % of administered dose excreted in urine) Mean” value ([4]; IV 0.1 mg/kg) was 0.92% and the “Amount … over Collection Period (0-24 hrs) Mean” value ([4]; IV 1.26 mg/kg) was 103 µg. For the same compound, the “Urinary Excretion (approximate % of administered dose excreted in urine) Mean” value ([4]; IV 1.26 mg/kg) was 1.67%.
